Laboratory results as given in US20230365627A1, “MACROCYCLIC PEPTIDE BORONATE IMMUNOMODULATORS” (Bristol-Myers Squibb Company, priority 2020, published 2023).
*1 amine or outer side, *2 acyl side, *3 side chain or, on linkers, in order; H or OH if unused. Where a SMILES comes first, the peptide text is derived from it. Bridges are numbered along the chain shown (N, C = ends). [ ]: non-standard residue; d: D form. X23 = O=C([C@H](CN1Cc2ccc(cc2)B2O[C@@H]([C@H](O)[C@@H](C(O)CO)O2)[C@H](O)C1)N[*:1])[*:2]; X13 = O=C([C@H](CCNC[C@@H](O)[C@@H](O)[C@H](O)[C@H](O)C(O)CO)N[*:1])[*:2]; Trp(1-CH2CO) = O=C([C@H](Cc1cn(CC(=O)[*:3])c2ccccc12)N[*:1])[*:2]; Trp(1-CH2COOH) = N[C@@H](Cc1cn(CC(=O)O)c2ccccc12)C(=O)O; X24 = O=C([C@H](CNCc1ccc(B(O)O[*:3])c(F)c1)N[*:1])[*:2]; X15 = COc1cccc(B(O)O[*:3])c1CNC[C@H](N[*:1])C(=O)[*:2]; X31 = O=C([C@H](CNCc1ccc(Cl)cc1B(O)O[*:3])N[*:1])[*:2]; X8 = O=C([C@H](CNCc1ccc(B(O)O[*:3])cc1Cl)N[*:1])[*:2]; X3 = O=C([C@H](CNCc1ccc(B(O)O[*:3])cc1F)N[*:1])[*:2]; X32 = O=C([C@H](CNCc1ccc(B(O)O[*:3])cc1)N[*:1])[*:2]; X1 = Cc1cc(CNC[C@H](N[*:1])C(=O)[*:2])cc(C)c1B(O)O; Hyp = O=C(O)[C@@H]1C[C@@H](O)CN1; NMeNle = CCCC[C@H](NC)C(=O)O; NMeA = CN[C@@H](C)C(=O)O; Dab = NCC[C@H](N)C(=O)O

Target: PD-1/PD-L1 (Homo sapiens (Human), UniProt Q9NZQ7)
Assay: PD-1/PD-L1 Homogenous Time-Resolved Fluorescence (HTRF) binding assay
Conditions: not given
From the text: Methods for Testing the Ability of Macrocyclic Peptides to Compete for the Binding of PD-1 to PD-L1 Using Homogenous Time-Resolved Fluorescence (HTRF) Binding Assays
The ability of the compounds of formula (I) to bind to PD-L1 was investigated using a PD-1/PD-L1 Homogenous Time-Resolved Fluorescence (HTRF) binding assay.
Homogenous Time-Resolved Fluorescence (HTRF) Binding Assay
The interaction of PD-1 and PD-L1 can be assessed using soluble, purified preparations of the extracellular domains of the two proteins. The PD-1 and PD-L1 protein extracellular domains were expressed as fusion proteins with detection tags, for PD-1, the tag was the Fc portion of Immunoglobulin (PD-1-Ig) and for PD-L1 it was the 6 histidine motif (PD-L1-His). All binding studies were performed in an HTRF assay buffer consisting of dPBS supplemented with 0.1% […] bovine serum albumin and 0.05% (v/v) Tween-20. For the h/PD-L1-His binding assay, inhibitors were pre-incubated with PD-L1-His (10 nM final) for 15 m in 4 μl of assay buffer, followed by addition of PD-1-Ig (20 nM final) in 1 μl of assay buffer and further incubation for 15 m. HTRF detection was achieved using europium cryptate-labeled anti-Ig (1 nM final) and allophycocyanin (APC) labeled anti-His (20 nM final). Antibodies were diluted in HTRF detection buffer and 5 μl was dispensed on top of the binding reaction. The reaction mixture was allowed to equilibrate for 30 minutes and the resulting signal (665 nm/620 nm ratio) was obtained using an EnVision fluorometer. Additional binding assays were established between the human proteins PD-1-Ig/PD-L2-His (20 & 5 nM, respectively) and CD80-His/PD-L1-Ig (100 & 10 nM, respectively).
Recombinant Proteins: Human PD-1 (25-167) with a C-terminal human Fc domain of immunoglobulin G (Ig) epitope tag [hPD-1 (25-167)-3S-IG] and human PD-L1 (18-239) with a C-terminal His epitope tag [hPD-L1(18-239)-TVMV-His] were expressed in HEK293T cells and purified sequentially by ProteinA affinity chromatography and size exclusion chromatography. Human PD-L2-His and CD80-His was obtained through commercial sources.
Table 1 lists the IC50 values for representative examples of this disclosure measured in the PD-1/PD-L1 Homogenous Time-Resolved Fluorescence (HTRF) binding assay.

PD-1/PD-L1, sequence (Q9NZQ7 18-239): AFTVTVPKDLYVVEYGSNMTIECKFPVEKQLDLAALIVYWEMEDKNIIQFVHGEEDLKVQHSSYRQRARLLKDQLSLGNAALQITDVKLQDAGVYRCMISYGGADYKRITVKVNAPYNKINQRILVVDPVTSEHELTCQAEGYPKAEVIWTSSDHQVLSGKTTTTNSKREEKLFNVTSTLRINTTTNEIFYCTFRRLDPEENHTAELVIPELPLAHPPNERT

SMILES	IC50 [nM]
CCCC[C@H]1C(=O)N(C)[C@@H](CCCC)C(=O)N[C@@H](CC(C)C)C(=O)N[C@H](C(=O)NCC(N)=O)CSCC(=O)N[C@@H](Cc2ccc(O)cc2)C(=O)N(C)[C@@H](C)C(=O)N[C@@H](CC(N)=O)C(=O)N2CCC[C@H]2C(=O)N[C@@H](CN2Cc3ccc(cc3)B3O[C@@H]([C@H](O)[C@@H](C(O)CO)O3)[C@H](O)C2)C(=O)N[C@@H](CC(C)C)C(=O)N2C[C@H](O)C[C@H]2C(=O)N[C@@H](Cc2c[nH]c3ccccc23)C(=O)N[C@@H](CCNC[C@@H](O)[C@@H](O)[C@H](O)[C@H](O)C(O)CO)C(=O)N[C@@H](Cc2cn(CC(=O)O)c3ccccc23)C(=O)N1C (stereo partly shown) [Example 1039] ({CH2CO}-Y[NMeA]NP[X23]L[Hyp]W[X13][Trp(1-CH2COOH)][NMeNle][NMeNle]LCG-NH2; thioether N-14)	4.4

Same assay, conditions: PD-L1-His 10 nM, PD-1-Ig 20 nM; read-out: HTRF IC50

SMILES	IC50 [nM]
CCCC[C@H]1C(=O)N(C)[C@@H](CCCC)C(=O)N[C@@H](CC(C)C)C(=O)N[C@H](C(=O)NCC(N)=O)CSCC(=O)N[C@@H](Cc2ccc(O)cc2)C(=O)N(C)[C@@H](C)C(=O)N[C@@H](CC(N)=O)C(=O)N2CCC[C@H]2C(=O)N[C@H]2CNCc3ccc(cc3F)B(O)OC(=O)Cn3cc(c4ccccc43)C[C@H](NC(=O)[C@H](CCN)NC(=O)[C@H](Cc3c[nH]c4ccccc34)NC(=O)[C@@H]3C[C@@H](O)CN3C(=O)[C@H](CC(C)C)NC2=O)C(=O)N1C [Example 1013] ({CH2CO}-Y[NMeA]NP[X3]L[Hyp]W[Dab][Trp(1-CH2CO)][NMeNle][NMeNle]LCG-NH2; ester 5-10; thioether N-14)	3.7
CCCC[C@H]1C(=O)N(C)[C@@H](CCCC)C(=O)N[C@@H](CC(C)C)C(=O)N[C@H](C(=O)NCC(N)=O)CSCC(=O)N[C@@H](Cc2ccc(O)cc2)C(=O)N(C)[C@@H](C)C(=O)N[C@@H](CC(N)=O)C(=O)N2CCC[C@H]2C(=O)N[C@H]2CNCc3ccc(cc3)B(O)OC(=O)Cn3cc(c4ccccc43)C[C@H](NC(=O)[C@H](CCN)NC(=O)[C@H](Cc3c[nH]c4ccccc34)NC(=O)[C@@H]3C[C@@H](O)CN3C(=O)[C@H](CC(C)C)NC2=O)C(=O)N1C [Example 1002] ({CH2CO}-Y[NMeA]NP[X32]L[Hyp]W[Dab][Trp(1-CH2CO)][NMeNle][NMeNle]LCG-NH2; ester 5-10; thioether N-14)	3.5
CCCC[C@H]1C(=O)N(C)[C@@H](CCCC)C(=O)N[C@@H](CC(C)C)C(=O)N[C@H](C(=O)NCC(N)=O)CSCC(=O)N[C@@H](Cc2ccc(O)cc2)C(=O)N(C)[C@@H](C)C(=O)N[C@@H](CC(N)=O)C(=O)N2CCC[C@H]2C(=O)N[C@@H](CNCc2cc(C)c(B(O)O)c(C)c2)C(=O)N[C@@H](CC(C)C)C(=O)N2C[C@H](O)C[C@H]2C(=O)N[C@@H](Cc2c[nH]c3ccccc23)C(=O)N[C@@H](CCN)C(=O)N[C@@H](Cc2cn(CC(=O)O)c3ccccc23)C(=O)N1C [Example 1014] ({CH2CO}-Y[NMeA]NP[X1]L[Hyp]W[Dab][Trp(1-CH2COOH)][NMeNle][NMeNle]LCG-NH2; thioether N-14)	8.2
CCCC[C@H]1C(=O)N(C)[C@@H](CCCC)C(=O)N[C@@H](CC(C)C)C(=O)N[C@H](C(=O)NCC(N)=O)CSCC(=O)N[C@@H](Cc2ccc(O)cc2)C(=O)N(C)[C@@H](C)C(=O)N[C@@H](CC(N)=O)C(=O)N2CCC[C@H]2C(=O)N[C@H]2CNCc3ccc(c(F)c3)B(O)OC(=O)Cn3cc(c4ccccc43)C[C@H](NC(=O)[C@H](CCN)NC(=O)[C@H](Cc3c[nH]c4ccccc34)NC(=O)[C@@H]3C[C@@H](O)CN3C(=O)[C@H](CC(C)C)NC2=O)C(=O)N1C [Example 1009] ({CH2CO}-Y[NMeA]NP[X24]L[Hyp]W[Dab][Trp(1-CH2CO)][NMeNle][NMeNle]LCG-NH2; ester 5-10; thioether N-14)	2.6
CCCC[C@H]1C(=O)N(C)[C@@H](CCCC)C(=O)N[C@@H](CC(C)C)C(=O)N[C@H](C(=O)NCC(N)=O)CSCC(=O)N[C@@H](Cc2ccc(O)cc2)C(=O)N(C)[C@@H](C)C(=O)N[C@@H](CC(N)=O)C(=O)N2CCC[C@H]2C(=O)N[C@H]2CNCc3ccc(cc3Cl)B(O)OC(=O)Cn3cc(c4ccccc43)C[C@H](NC(=O)[C@H](CCN)NC(=O)[C@H](Cc3c[nH]c4ccccc34)NC(=O)[C@@H]3C[C@@H](O)CN3C(=O)[C@H](CC(C)C)NC2=O)C(=O)N1C [Example 1020] ({CH2CO}-Y[NMeA]NP[X8]L[Hyp]W[Dab][Trp(1-CH2CO)][NMeNle][NMeNle]LCG-NH2; ester 5-10; thioether N-14)	14
CCCC[C@H]1C(=O)N(C)[C@@H](CCCC)C(=O)N[C@@H](CC(C)C)C(=O)N[C@H](C(=O)NCC(N)=O)CSCC(=O)N[C@@H](Cc2ccc(O)cc2)C(=O)N(C)[C@@H](C)C(=O)N[C@@H](CC(N)=O)C(=O)N2CCC[C@H]2C(=O)N[C@H]2CNCc3ccc(Cl)cc3B(O)OC(=O)Cn3cc(c4ccccc43)C[C@H](NC(=O)[C@H](CCN)NC(=O)[C@H](Cc3c[nH]c4ccccc34)NC(=O)[C@@H]3C[C@@H](O)CN3C(=O)[C@H](CC(C)C)NC2=O)C(=O)N1C [Example 1018] ({CH2CO}-Y[NMeA]NP[X31]L[Hyp]W[Dab][Trp(1-CH2CO)][NMeNle][NMeNle]LCG-NH2; ester 5-10; thioether N-14)	4.9
CCCC[C@H]1C(=O)N(C)[C@@H](CCCC)C(=O)N[C@@H](CC(C)C)C(=O)N[C@H](C(=O)NCC(N)=O)CSCC(=O)N[C@@H](Cc2ccc(O)cc2)C(=O)N(C)[C@@H](C)C(=O)N[C@@H](CC(N)=O)C(=O)N2CCC[C@H]2C(=O)N[C@H]2CNCc3c(OC)cccc3B(O)OC(=O)Cn3cc(c4ccccc43)C[C@H](NC(=O)[C@H](CCN)NC(=O)[C@H](Cc3c[nH]c4ccccc34)NC(=O)[C@@H]3C[C@@H](O)CN3C(=O)[C@H](CC(C)C)NC2=O)C(=O)N1C [Example 1012] ({CH2CO}-Y[NMeA]NP[X15]L[Hyp]W[Dab][Trp(1-CH2CO)][NMeNle][NMeNle]LCG-NH2; ester 5-10; thioether N-14)	3
CCCC[C@H]1C(=O)N(C)[C@@H](CCCC)C(=O)N[C@@H](CC(C)C)C(=O)N[C@H](C(=O)NCC(N)=O)CSCC(=O)N[C@H]2Cc3ccc(cc3)OB(O)c3ccc(nc3)CNCC[C@@H]3NC(=O)[C@H](Cc4c[nH]c5ccccc45)NC(=O)[C@@H]4C[C@@H](O)CN4C(=O)[C@H](CC(C)C)NC(=O)[C@H](CNCc4ccc(cn4)B(O)OC(=O)Cn4cc(c5ccccc54)C[C@H](NC3=O)C(=O)N1C)NC(=O)[C@@H]1CCCN1C(=O)[C@H](CC(N)=O)NC(=O)[C@H](C)N(C)C2=O [Example 1034]	11
CCCC[C@H]1C(=O)N(C)[C@@H](CCCC)C(=O)N[C@@H](CC(C)C)C(=O)N[C@H](C(=O)NCC(N)=O)CSCC(=O)N[C@H]2Cc3ccc(cc3)OB(O)c3ccc(c(F)c3)CNCC[C@@H]3NC(=O)[C@H](Cc4c[nH]c5ccccc45)NC(=O)[C@@H]4C[C@@H](O)CN4C(=O)[C@H](CC(C)C)NC(=O)[C@H](CNCc4ccc(cc4F)B(O)OC(=O)Cn4cc(c5ccccc54)C[C@H](NC3=O)C(=O)N1C)NC(=O)[C@@H]1CCCN1C(=O)[C@H](CC(N)=O)NC(=O)[C@H](C)N(C)C2=O [Example 1028]	4.6
